Laboratory results as given in patent US8080529B2, “Macrolides with anti-inflammatory activity” (Glaxo Group Limited, priority 2005, dated 2011).
Where two headings read alike, the source gives them in different places.

What was measured:
Type in all cases: cell-based
[1] = test system: TNF-α; test: Inhibition of TNF-α production by stimulated human peripheral blood leukocytes in vitro; settings: for inhibition at 10 µM / inhibition at 50 µM: Homo sapiens, Leukocyte, read-out: Percentage of inhibition of TNF-α production
Procedure: (§1) Test substances used in in vitro experiments were dissolved in dimethyl sulfoxide (DMSO) (Kemika, Croatia) at concentrations of 50 mM and 10 mM, and were further diluted to final concentrations of 50 μM and 10 μM in 1 mL Dulbecco's modified Eagle medium (DMEM) supplemented with 1% heat inactivated fetal bovine serum (FBS), 1% L-glutamine, 50 U/ml penicillin, 50 μg/ml streptomycin and 2.5 μg/mL Fungizone (amphotericin B). Media and all media supplements were purchased from Gibco, Australia, except the FBS was purchased from Sigma, USA.
(§2) Peripheral blood leukocytes (PBL) were obtained from venous blood of healthy volunteers by sedimentation on 2% dextran T-500 (Amersham Biosciences, USA) and subsequent centrifugations of leukocyte rich plasma.
(§3) Peripheral blood leukocytes (PBL), isolated as described above, were seeded in a 48-well plate at a concentration of 3 to 5×10^6 cell per well in culture medium consisting of RPMI 1640 medium (Institute of Immunology, Croatia) supplemented with 10% heat-inactivated fetal calf serum (FCS, Biowhittaker, USA), 100 U/ml penicillin (Gibco, Australia), 100 μg/ml streptomycin (Gibco, Australia) and 2 mM L-glutamine (Gibco, Australia), and preincubated with the test compounds for 2 h at 37° C., in an atmosphere of 5% CO2, and 90% humidity. Then, stimuli (Sigma, USA) were added to a final concentration of 2 μg/mL lipopolysaccharide (LPS), 1 μg/mL phorbol 12-myristate 13-acetate (PMA) or 120 μg/mL zymosan. Samples were incubated overnight under conditions described above. At the end of incubation, the supernatants were transferred to eppendorf tubes and centrifuged for 10 min at 1500×g. Concentrations of human TNF-α, IL-1β, IL-6 and IL-8 were determined in cell supernatants by sandwich ELISA, using capture and detection antibodies (R&D Systems, Minneapolis, Minn.) according to the manufacturer's recommendations.
(§4) Inhibition (as percentage) was calculated using the following formula: % inhibition=(1−concentration of cytokines in sample/concentration of cytokines in positive control)×100.
(§5) The positive control refers to LPS-, PMA- or zymosan-stimulated samples that were not preincubated with test compounds.

[2] = test system: IL-1α; test: Inhibition of IL-1 production by stimulated human peripheral blood leukocytes in vitro; settings: for inhibition at 10 µM / inhibition at 50 µM: Homo sapiens, Leukocyte, read-out: Percentage of inhibition of IL-1α production
[3] = test system: IL-6; test: Inhibition of IL-6 production by stimulated human peripheral blood leukocytes in vitro; settings: for inhibition at 10 µM / inhibition at 50 µM: Homo sapiens, Leukocyte, read-out: Percentage of inhibition of IL-6 production
Procedure: as §1, §2, §3, §4, §5

[4] = test system: IL-8; test: Inhibition of IL-8 production by stimulated human peripheral blood leukocytes in vitro; settings: for inhibition at 10 µM / inhibition at 50 µM: Homo sapiens, Leukocyte, read-out: Percentage of inhibition of IL-8 production
Procedure: as §1, §2, §3, §4, §5

With CC[C@H]1OC(=O)[C@H](C)[C@@H](O[C@H]2C[C@@](C)(OC)[C@@H](OCCCN(CC)CC)[C@H](C)O2)[C@H](C)[C@@H](O[C@@H]2O[C@H](C)C[C@H](N(C)C)[C@H]2O)[C@](C)(O)C[C@@H](C)CN(C)[C@H](C)[C@H]2OC(=O)O[C@@]21C [Example 95, 4″-O-(3-diethylamino-propyl)-azithromycin 11,12-cyclic carbonate] the “Percentage of inhibition of TNF-α production” value ([1]; 10 μM, LPS-stimulated PBL) was 12%, the “Percentage of inhibition of TNF-α production” value ([1]; 10 μM, PMA-stimulated PBL) was 34% and the “Percentage of inhibition of TNF-α production” value ([1]; 10 μM, zymosan-stimulated PBL) was 47%. For the same molecule, the “Percentage of inhibition of TNF-α production” value ([1]; 50 μM, LPS-stimulated PBL) was 30%, the “Percentage of inhibition of TNF-α production” value ([1]; 50 μM, PMA-stimulated PBL) was 50% and the “Percentage of inhibition of TNF-α production” value ([1]; 50 μM, zymosan-stimulated PBL) was 63%. For the same molecule, the “Percentage of inhibition of IL-1α production” value ([2]; 10 μM, LPS-stimulated PBL) was 0%, the “Percentage of inhibition of IL-1α production” value ([2]; 10 μM, PMA-stimulated PBL) was 25% and the “Percentage of inhibition of IL-1α production” value ([2]; 10 μM, zymosan-stimulated PBL) was 38%. The “Percentage of inhibition of IL-1α production” value ([2]; 50 μM, LPS-stimulated PBL) was 0%, the “Percentage of inhibition of IL-1α production” value ([2]; 50 μM, PMA-stimulated PBL) was 75% and the “Percentage of inhibition of IL-1α production” value ([2]; 50 μM, zymosan-stimulated PBL) was 42%. For the same molecule, the “Percentage of inhibition of IL-6 production” value ([3]; 10 μM, LPS-stimulated PBL) was 1%, the “Percentage of inhibition of IL-6 production” value ([3]; 10 μM, PMA-stimulated PBL) was 17% and the “Percentage of inhibition of IL-6 production” value ([3]; 10 μM, zymosan-stimulated PBL) was 18%. The “Percentage of inhibition of IL-6 production” value ([3]; 50 μM, LPS-stimulated PBL) was 8%, the “Percentage of inhibition of IL-6 production” value ([3]; 50 μM, PMA-stimulated PBL) was 56% and the “Percentage of inhibition of IL-6 production” value ([3]; 50 μM, zymosan-stimulated PBL) was 58%. For the same molecule, the “Percentage of inhibition of IL-8 production” value ([4]; 10 μM, LPS-stimulated PBL) was 0%, the “Percentage of inhibition of IL-8 production” value ([4]; 10 μM, PMA-stimulated PBL) was 0% and the “Percentage of inhibition of IL-8 production” value ([4]; 10 μM, zymosan-stimulated PBL) was 5%. The “Percentage of inhibition of IL-8 production” value ([4]; 50 μM, LPS-stimulated PBL) was 16%, the “Percentage of inhibition of IL-8 production” value ([4]; 50 μM, PMA-stimulated PBL) was 21% and the “Percentage of inhibition of IL-8 production” value ([4]; 50 μM, zymosan-stimulated PBL) was 33%.

Work on CC[C@H]1OC(=O)[C@H](C)[C@@H](O[C@H]2C[C@@](C)(OC)[C@@H](OCCCN(CC)CC)[C@H](C)O2)[C@H](C)[C@@H](O[C@@H]2O[C@H](C)C[C@H](N(C)C)[C@H]2O)[C@](C)(O)C[C@@H](C)CN(C)[C@H](C)[C@@H](O)[C@]1(C)O [Example 96, 4″-O-(3-diethylamino-propyl)-azithromycin] yielded an inhibition at 10 µM ([1]; 10 μM, LPS-stimulated PBL) of 3%, an inhibition at 10 µM ([1]; 10 μM, PMA-stimulated PBL) of 14% and an inhibition at 10 µM ([1]; 10 μM, zymosan-stimulated PBL) of 21%. For the same molecule, the inhibition at 50 µM ([1]; 50 μM, LPS-stimulated PBL) was 13%, the inhibition at 50 µM ([1]; 50 μM, PMA-stimulated PBL) was 48% and the inhibition at 50 µM ([1]; 50 μM, zymosan-stimulated PBL) was 61%. It also gave an inhibition at 10 µM ([2]; 10 μM, LPS-stimulated PBL) of 0%, an inhibition at 10 µM ([2]; 10 μM, PMA-stimulated PBL) of 32% and an inhibition at 10 µM ([2]; 10 μM, zymosan-stimulated PBL) of 36%. For the same molecule, the inhibition at 50 µM ([2]; 50 μM, LPS-stimulated PBL) was 0%, the inhibition at 50 µM ([2]; 50 μM, PMA-stimulated PBL) was 81% and the inhibition at 50 µM ([2]; 50 μM, zymosan-stimulated PBL) was 88%. The inhibition at 10 µM ([3]; 10 μM, LPS-stimulated PBL) was 0%, the inhibition at 10 µM ([3]; 10 μM, PMA-stimulated PBL) was 27% and the inhibition at 10 µM ([3]; 10 μM, zymosan-stimulated PBL) was 17%. For the same molecule, the inhibition at 50 µM ([3]; 50 μM, LPS-stimulated PBL) was 3%, the inhibition at 50 µM ([3]; 50 μM, PMA-stimulated PBL) was 64% and the inhibition at 50 µM ([3]; 50 μM, zymosan-stimulated PBL) was 76%. For the same molecule, the inhibition at 10 µM ([4]; 10 μM, LPS-stimulated PBL) was 0%, the inhibition at 10 µM ([4]; 10 μM, PMA-stimulated PBL) was 0% and the inhibition at 10 µM ([4]; 10 μM, zymosan-stimulated PBL) was 6%. The inhibition at 50 µM ([4]; 50 μM, LPS-stimulated PBL) was 17%, the inhibition at 50 µM ([4]; 50 μM, PMA-stimulated PBL) was 12% and the inhibition at 50 µM ([4]; 50 μM, zymosan-stimulated PBL) was 40%.

CC[C@H]1OC(=O)[C@H](C)[C@@H](O[C@H]2C[C@@](C)(OC)C(OC(=O)CCN(CC)CC)[C@H](C)O2)[C@H](C)[C@@H](O[C@@H]2O[C@H](C)C[C@H](NC)[C@H]2O)[C@](C)(O)C[C@@H](C)CN(C)[C@H](C)[C@@H](O)[C@]1(C)O (stereo partly drawn) [Example 90, 3′-N-Demethyl-4″-O-(3-diethylaminopropionyl)-azithromycin] showed an inhibition at 10 µM ([1]; 10 μM, LPS-stimulated PBL) of 78%, an inhibition at 10 µM ([1]; 10 μM, PMA-stimulated PBL) of 40% and an inhibition at 10 µM ([1]; 10 μM, zymosan-stimulated PBL) of 53%. The inhibition at 50 µM ([1]; 50 μM, LPS-stimulated PBL) was 100%, the inhibition at 50 µM ([1]; 50 μM, PMA-stimulated PBL) was 95% and the inhibition at 50 µM ([1]; 50 μM, zymosan-stimulated PBL) was 94%. The inhibition at 10 µM ([2]; 10 μM, LPS-stimulated PBL) was 62%, the inhibition at 10 µM ([2]; 10 μM, PMA-stimulated PBL) was 61% and the inhibition at 10 µM ([2]; 10 μM, zymosan-stimulated PBL) was 82%. The inhibition at 50 µM ([2]; 50 μM, LPS-stimulated PBL) was 91%, the inhibition at 50 µM ([2]; 50 μM, PMA-stimulated PBL) was 57% and the inhibition at 50 µM ([2]; 50 μM, zymosan-stimulated PBL) was 100%. For the same molecule, the inhibition at 10 µM ([3]; 10 μM, LPS-stimulated PBL) was 67%, the inhibition at 10 µM ([3]; 10 μM, PMA-stimulated PBL) was 46% and the inhibition at 10 µM ([3]; 10 μM, zymosan-stimulated PBL) was 60%. For the same molecule, the inhibition at 50 µM ([3]; 50 μM, LPS-stimulated PBL) was 88%, the inhibition at 50 µM ([3]; 50 μM, PMA-stimulated PBL) was 90% and the inhibition at 50 µM ([3]; 50 μM, zymosan-stimulated PBL) was 100%. The inhibition at 10 µM ([4]; 10 μM, LPS-stimulated PBL) was 4%, the inhibition at 10 µM ([4]; 10 μM, PMA-stimulated PBL) was 0% and the inhibition at 10 µM ([4]; 10 μM, zymosan-stimulated PBL) was 24%. For the same molecule, the inhibition at 50 µM ([4]; 50 μM, LPS-stimulated PBL) was 38%, the inhibition at 50 µM ([4]; 50 μM, PMA-stimulated PBL) was 53% and the inhibition at 50 µM ([4]; 50 μM, zymosan-stimulated PBL) was 88%.
